For one series, the system named is monkeys. The note with it: single administration; cited from earlier work.
In another series the test system is mice. The note with it: single administration; cited from earlier work.
Series [1] is described as follows: Aqueous solubility of modafinil, alone and in HPβCD solutions. It counts as physicochemical. The note with it: thermodynamic from solid. Here is the method: The following HPLC method may be used to measure the modafinil compound content in the compositions. Filter a solution saturated with a modafinil compound through a 1.2 μm syringe filter. Dilute 10 μL of the clear solution to 1 mL with 990 μL of dimethylsulfoxide (Fischer Certified ACS grade). Take 10 μL of the diluted solution for the HPLC analysis, with the following representative column conditions: • Flow rate: 1.2 mL/min. • Column: ODS, 4.6×20 mm, Column Temp: 30° C. • Mobil phase: 80%(65% Acetonitrile/35%1M phosphate buffer) 20% water • Analysis time: 5 minutes • Wavelength: 222 nanometers
Concentration can be calculated by comparison to area from a modafinil compound standard used at 0.4 mg/mL with appropriate dilution.

In brackets after ≈: the same amount, converted by molar mass. Where two headings read alike, the source gives them in different places.

With `NC(=O)C[S+]([O-])C(c1ccccc1)c1ccccc1` (stereo not drawn) [modafinil, 2-(benzhydryl-sulfinyl)acetamide], the nocturnal activity entry in the series with monkeys is “increased nocturnal activity”. For the same molecule, the locomotor activity result in the series with mice was “increased locomotor activity”. The solubility in series [1] (aqueous with cosolvent or surfactant or cyclodextrin, 2% HPβCD solution, from 1:1 complex, read-out: amount solubilized) is roughly 4.4 mg/mL (≈ 16.1 mM); in series [1] (aqueous with cosolvent or surfactant or cyclodextrin, 20% HPβCD solution, from 1:1 complex, read-out: amount solubilized) it was roughly 39.5 mg/mL (≈ 144 mM); in series [1] (aqueous with cosolvent or surfactant or cyclodextrin, 40% HPβCD solution, from 1:1 complex, read-out: amount solubilized), roughly 78.4 mg/mL (≈ 287 mM); in series [1] (water without cyclodextrin, water, read-out: aqueous solubility), 0.44 mg/mL (≈ 1.61 mM).

Source of the values: US7704975B2, “Modafinil compound and cyclodextrin mixtures” (Cephalon, Inc., priority 2000, dated 2010).
